Where no end group is shown, it is not given here. The star is where a group is joined. Octanoyl = CCCCCCCC(=O)*
What was measured:
[1] = system: rats exposed to 10 Gy WBI; experiment: Survival study after whole body irradiation (WBI); format: in vivo, rat; settings: 10 Gy WBI rats, 30 day observation, vehicle 30%
Method: Experimental animals. Male Sprague-Dawley (SD) rats (250-350 g) purchased from Charles River Laboratories (Wilmington, Mass., USA) were used. The rats were housed in a temperature-controlled room on a 12-h light/dark cycle and fed on a standard Purina rat chow diet. Animal experimentation was carried out in accordance with the Guide for the Care and Use of Laboratory Animals. This project was approved by the Institutional Animal Care and Use Committee (IACUC) of the Feinstein Institute for Medical Research.
Animal model of whole body irradiation. […]
Survival study. To assess the survival benefits of human ghrelin, animals were exposed to 10 Gy WBI and treated with human ghrelin (20 nmol/rat) subcutaneously once a day, with the first dose given either at 24 h or 48 h after WBI, for 6 days and observed for 30 days, and the survival recorded. […] Rats in the survival study were monitored twice daily and weighed once a day during the 30 day survival period. Net weight change was calculated as: % Weight Change ((weight at each day−weight at day 0)/weight at day 0)×100.
Statistical analysis. All data are expressed as mean±SE and analyzed by one way analysis of variance (ANOVA) and compared using Student Newman Keul's test for multiple comparisons. […]

[2] = Percent body weight change after WBI; format: in vivo, rat; settings: 10 Gy WBI rats; treatment starting at 24 h; 30 day period
Method: (§1) Animal model of whole body irradiation. Rats were exposed to whole body irradiation (WBI) of 10 Gray (Gy) using a Gammacell® 1000 Irradiator (Atomic Energy of Canada Ltd) [radiation source: Cesium-137 (^137Cs)] delivered at a dose rate of about 2.5 GY/min. The animals were sedated with intra-peritoneal pentobarbital (40 mg/kg BW) prior to irradiation. During radiation, the container rotated continuously in front of the radiation source for even exposure. The animals were then returned to their cages, and food and water were provided.
Survival study. To assess the survival benefits of human ghrelin, animals were exposed to 10 Gy WBI and treated with human ghrelin (20 nmol/rat) subcutaneously once a day, with the first dose given either at 24 h or 48 h after WBI, for 6 days and observed for 30 days, and the survival recorded. The surviving animals beyond 30 days were then euthanized. Rats in the survival study were monitored twice daily and weighed once a day during the 30 day survival period. Net weight change was calculated as: % Weight Change ((weight at each day−weight at day 0)/weight at day 0)×100.

rat jejunum = experiment: Histopathology of jejunum after WBI (H&E, PAS); format: in vivo; settings: Day 7 after 10 Gy WBI
Method: as §1
Blood and Tissue Collection after WBI. Rats exposed to 10 Gy WBI were treated with 20 nmol/rat human ghrelin once a day for 6 days starting at 24 h after radiation. At the 7th day, rats were euthanized, and blood, liver and the small intestine were removed under sterile conditions. The blood was allowed to clot and following centrifugation, the serum was transferred into pyrogenic free sterile tubes, and stored at −80° C. until further analysis. Liver (0.25 g) was snap-frozen in liquid nitrogen and stored at −80° C. for subsequent bacterial translocation analysis. Small intestine, 10-15 cm of the ileum, was harvested for gut permeability studies, 10 cm of jejunum was collected for histopathology, and the remaining 10 cm jejunal segment each was collected for RNA and protein analyses.
Histopathology. Jejunal segments were fixed in 1:10 buffered formalin and embedded in paraffin. Tissue blocks were sectioned at a thickness of 5 μm, transferred to glass slides, and stained with hematoxylin and eosin (H&E). The sections were observed under 100× magnification using a Nikon Eclipse Ti inverted microscope equipped with the Nikon Digital Sight Camera (Nikon Inc. Melville, N.Y.). Villus height was determined by measuring the distance from villus-crypt junction to the villus tip and crypt depth was determined by the distance from villus-crypt junction to basal crypt cells using the Nikon software. For each rat, 100 measurements of villus height and crypt depth were obtained from 5 circumferences. Periodic Acid Schiff (PAS) stained sections were used to quantify the number of goblet cells per villus. Three rats in each group were used to calculate the mean.

pAkt = experiment: Western blot of jejunal pAkt expression; format: in vivo, rat; settings: jejunum, Day 7 after 10 Gy WBI; versus vehicle
Method: as §1
Blood and Tissue Collection after WBI. Rats exposed to 10 Gy WBI were treated with 20 nmol/rat human ghrelin once a day for 6 days starting at 24 h after radiation. At the 7th day, rats were euthanized, and blood, liver and the small intestine were removed under sterile conditions. […]
Western blot analysis. […] After overnight incubation with the primary antibodies at 4° C., the membranes were washed with TBS-T Immunoreactive bands were detected using HRP-linked secondary antibody (Southern Biotech, Birmingham, Ala.) and the Enhanced Chemiluminescence (ECL) Western blot detection kit (Amersham, Piscataway, N.J.). The immunoblots were exposed to X-ray film and analyzed with the NIH Image J analysis system. […]

ghrelin (GSS(Octanoyl)FLSPEHQRVQQRKESKKPPAKLQPR; listed as Homo sapiens) [human ghrelin]
survival rate ([1]; 20 nmol/rat s.c. once a day for 6 days starting at 24 h after WBI): 63% | survival rate ([1]; 20 nmol/rat s.c. once a day for 6 days, treatment initiated at 48 h after WBI): 61% | percent body weight change [2]: consistent increase in the body weight | intestinal integrity and morphology (H&E) (rat jejunum; 6 days treatment starting at 24 h): improved the intestinal integrity and morphology | goblet cell number/villus, increase from Sham (rat jejunum; jejunum PAS stain, vehicle 29%): 5% | crypt depth, reduction from Sham (rat jejunum; jejunum, 20 nmol/rat for 6 days from 24 h, vehicle 14%): 2.8% | villus length, reduction from Sham (rat jejunum; jejunum, 20 nmol/rat for 6 days from 24 h, vehicle 19%): 2.0% | intestinal pAkt expression (pAkt): further significantly increased
